Activity calls are given as the source filed them.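 How the source made its calls: active means at least 15% inhibition at the top concentration together with an EC50 under 10 microM; inactive means the rest.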
Assay: potency against LAMP-1 externalization in TALL-104 – TALL-104 cells, flow cytometry, CherryPick01, dose response (AID 652101);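 further: 0% = stimulated DMSO control and 100% = unstimulated control wells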
Conditions: TALL-104 lytic granule exocytosis, LAMP-1 flow cytometry, at 15.1 µM (top of the series)
[1] = stimulated with 1 µM thapsigargin, 50 nM PMA

SMILES	inhibition [1]	inhibition
CN(C)CCC(=O)c1ccc2c(c1)OCO2	103% (inactive)	–
Cc1ccc(-c2nn(-c3ccccc3)cc2CNCc2ccccc2)cc1	99.5% (inactive)	–
CC(C)(c1ccccc1)c1ccc(OCC(O)CNC2CCN(Cc3ccccc3)CC2)cc1 (centres undefined)	31.5% (inactive)	–
CC(C)c1ccccc1OCC(O)CN(CC(O)COc1cccc2ccccc12)C(C)C (centres undefined)	101% (inactive)	–
CCOc1cccc(CNCCc2c(C)[nH]c3ccc(OC(F)(F)F)cc23)c1O	–	82.3% (inactive)
CCN1CCN(Cc2ccc(NC(=O)c3cc(NC(=O)C(=O)c4c[nH]c5ccccc45)cc(OC)c3)cc2C(F)(F)F)CC1	81.8% (inactive)	–
CC(Nc1nc(N2CCNCC2)nc2ccccc12)c1ccccc1 (centres undefined)	104% (inactive)	–
O=C(Nc1nc2ccc(SC(F)F)cc2s1)c1ccc(NS(=O)(=O)c2ccc(F)c(F)c2)cc1	105% (inactive)	–
CC(C)CNC(=O)c1c(N)n(Cc2ccc3c(c2)OCO3)c2nc3ccccc3nc12	–	69.2% (inactive)
CSc1cccc(NC(=S)N(CCCN2CCCC2)Cc2cccn2Cc2ccc(Cl)cc2)c1	65.2% (inactive)	–
Cc1ccc2nc(-c3ccc(N4C(=O)CC(N5CCN(CCO)CC5)C4=O)cc3)sc2c1 (centres undefined)	83.1% (inactive)	–
Oc1ccccc1Nc1nc(NCc2ccccc2)c2ccccc2n1	90.6% (inactive)	–
COc1cccc2c1C(=O)c1ccc3ccccc3c1C2=O	18.2% (inactive)	–
CC(=O)Nc1ccc2sn(-c3ccccc3)c(=O)c2c1	81.8% (inactive)	–
CCCCNc1c(-c2ccc(OC)c(SC3CCCCC3)c2)nc2ccc(C)cn12	103% (inactive)	–
CN1CCN(c2cc(-c3ccccc3)nc3cc(-c4ccc(F)cc4)nn23)CC1	61.3% (inactive)	–
CCc1ccc(CNC(=O)C2CCCN(c3nnc(C)c4c(C)n(-c5ccccc5)nc34)C2)cc1 (centres undefined)	97.2% (inactive)	–
O=c1c(Cl)c2oc3ccccc3nc-2c2ccccc12	-0.07% (inactive)	–
COc1ccc(-c2cc(NC=O)c3ncc(-c4cccc(OC)c4)n3c2)cc1	101% (inactive)	–
COc1ccc([N+](=O)[O-])cc1Nc1c2ccccc2nc2ccccc12	79.8% (inactive)	–
Oc1ccccc1Nc1nc(NCc2ccco2)c2ccccc2n1	107% (inactive)	–
CCOC(=O)c1c(NC(=O)CSc2nnnn2-c2ccccc2OCC)sc2c1CC(C)(C)NC2(C)C	84.6% (inactive)	–
COc1ccc(C2CC(c3cccs3)=NN2c2nc(C)c(C(C)=O)s2)cc1OC (centres undefined)	2.08% (inactive)	–

SMILES	inhibition [1]	inhibition
COc1ccc(N(CC(=O)NCCSc2ccccn2)S(=O)(=O)c2ccccc2)c(OC)c1	-7.92% (inactive)	–
CCOC(=O)c1c(NC(C)=O)sc2c(OCC(O)CN(CC)CC)c(Br)ccc12 (centres undefined)	88.2% (inactive)	–
OC(CNCC(c1ccc(Cl)cc1Cl)c1c[nH]c2ccccc12)c1ccccc1 (centres undefined)	81.7% (inactive)	–
Cc1cc(C(=O)CSc2nc3ccccc3[nH]2)c(C)n1CC1CCCO1 (centres undefined)	89.3% (inactive)	–
O=C(CCN1CCc2ccccc2CC1)c1ccc2c(c1)OCCO2	73.6% (inactive)	–
Cn1cncc1C#Cc1c(-c2ccc(S(C)(=O)=O)cc2)sc2ccccc12	102% (inactive)	–
Cc1c(C(=O)OCC(=O)Nc2cccc(S(N)(=O)=O)c2)oc2c1ccc1ccccc12	104% (inactive)	–
Cc1ccc2c3c(cccc13)-c1ccccc1C2=O	4.2% (inactive)	–
O=c1c2ccccc2sn1-c1ccc(Cl)cc1	103% (inactive)	–
COC(=O)c1ccc(N2CCN(C)CC2)c(NC(=O)c2sc3ccccc3c2Cl)c1	70.3% (inactive)	–
O=[N+]([O-])c1cccc(-c2cc(-c3cc(Br)ccc3O)[nH]n2)c1	67.8% (inactive)	–
CCCCC[C@@H](C)N1C[C@H](COCc2ccccc2)Oc2cc(N3CC[C@@H](N(C)C)C3)ccc2S1(=O)=O	65% (inactive)	–
CCOc1ccc2nc(N(CCCN(C)C)C(=O)c3ccc(S(=O)(=O)N4CCc5ccccc5C4)cc3)sc2c1	37% (inactive)	–
Cc1ccc(Cl)cc1-c1cc(C(=O)NCc2ccc(C(F)(F)F)cc2)[nH]n1	103% (inactive)	–
CN(C)CCNC(=O)c1ccc(-c2cn3c(-c4ccc(Oc5ccccc5)cc4)cnc3cn2)cc1	81.6% (inactive)	–
Nc1c(C(=O)NCc2ccc(F)cc2)c2nc3ccccc3nc2n1CCCN1CCOCC1	72.5% (inactive)	–
COc1cc2c(cc1OC)C(c1ccc(-c3ccc(Cl)c(Cl)c3)o1)=NCC2	88.4% (inactive)	–
Cc1cc(F)ccc1S(=O)(=O)Nc1ccccc1C(=O)Nc1ccccc1-c1nc2ccccc2[nH]1	106% (inactive)	–
O=CNc1cc(-c2ccsc2)cn2c(-c3ccccc3)cnc12	105% (inactive)	–
Cc1cccc(C)c1-n1nnnc1C(CCc1ccccc1)N1CCC(n2c(=O)[nH]c3ccccc32)CC1 (centres undefined)	–	94.8% (inactive)
COc1ccc(N2C(=O)CC(Sc3n[nH]c(-c4ccccc4)n3)C2=O)cc1 (centres undefined)	95.2% (inactive)	–
Cc1cncn1CCc1nc2c3ccccc3nc(SCC(=O)Nc3cccc(Cl)c3)n2n1	104% (inactive)	–
O=c1c2cc(F)ccc2sn1-c1ccccc1Cl	95.2% (inactive)	–

SMILES	inhibition [1]	inhibition
NCCc1c(-c2ccccc2)n(-c2ccccc2)c2ccccc12	68.2% (inactive)	–
O=C1ON=C(c2ccccc2)/C1=C/c1ccc(-c2ccccc2[N+](=O)[O-])o1	102% (inactive)	–
OC1(c2cccc(C(F)(F)F)c2)CCN(c2ncnc3c2[nH]c2ccc(F)cc23)CC1	107% (inactive)	–
CC1(C(=O)OCC(=O)Nc2nc(-c3ccc(F)c(F)c3)cs2)CC1(Cl)Cl (centres undefined)	95% (inactive)	–
CCC(C)Nc1nc(-c2cccc(OC)c2O)nc2ccccc12 (centres undefined)	101% (inactive)	–
Cc1ccc(-c2nn(-c3ccccc3)cc2CN(Cc2ccccc2)C(=O)c2ccco2)o1	105% (inactive)	–
CCc1nc2ccc(C(=O)NC3CCN(Cc4ccccc4)CC3)cn2c1N(C)Cc1cc2ccccc2s1	101% (inactive)	–
Cn1c(=O)c(NC2CCCCC2)c2c3c(cccc31)C(=O)c1ccccc1-2	-4.68% (inactive)	–
CCOc1cc(CNCCc2ccc(S(N)(=O)=O)cc2)ccc1OCc1ccc(Cl)cc1	48.5% (inactive)	–
c1ccc(COc2ccc(-c3cc4nc(NCCCn5ccnc5)ccn4n3)cc2)cc1	106% (inactive)	–
CC(=O)Nc1ccc2c(=O)n(-c3ccccc3)sc2c1	67.8% (inactive)	–
Cn1c(=O)c(N)c2c3c(c(Br)ccc31)C(=O)c1ccccc1-2	1.57% (inactive)	–
C=C(C)COc1ccc(-c2n[nH]c(C)c2-c2ccc(OC)cc2)c(O)c1	106% (inactive)	–
CCN(CC)CCOC(=O)c1ccc(N/C=C(/C#N)c2nc(-c3ccc(OC)cc3)cs2)cc1	56.9% (inactive)	–
CCOc1ccc(Cl)cc1-c1cc(C(=O)NCc2cccs2)[nH]n1	79.8% (inactive)	–
CCOc1ccccc1CNC(=O)C1CCN(c2nnc(C)c3c(C)n(-c4ccc(C)cc4)nc23)CC1	59.4% (inactive)	–
COc1cccc(-c2cnc3c(NC=O)cc(-c4ccccc4)cn23)c1	101% (inactive)	–
COc1ccc(-c2cc(NC(C)=O)c3ncc(-c4ccccc4)n3c2)c(OC)c1	106% (inactive)	–
CCCCCc1c(-c2cccc(F)c2)ncn1CCc1ccccc1OC	102% (inactive)	–
O=C(CCN1CCc2ccccc2C(c2ccccc2)C1)c1ccc2c(c1)OCCO2 (centres undefined)	101% (inactive)	–
COCCNc1nc(NCc2cccc(OC)c2)c2sc(-c3ccccc3)cc2n1	105% (inactive)	–
CCOC(=O)c1c(C)oc2c1c(C(c1cccnc1)N1CCOCC1)c(O)c1ccccc12 (centres undefined)	95% (inactive)	–
COc1ccc(-c2cc(NC=O)c3ncc(-c4ccccc4)n3c2)cc1OC	89.8% (inactive)	–

SMILES	inhibition [1]	inhibition
CCOC(=O)c1c(CSc2ccccc2)n(C)c2cc(Br)c(O)c(CN(C)C)c12	20.5% (inactive)	–
O=C1OC(c2ccccc2)(c2cc(Br)ccc2O)c2ccccc21 (centres undefined)	109% (inactive)	–
N#Cc1c(NC(=O)c2ccc(Br)o2)n(-c2ccccc2)c2nc3ccccc3nc12	-12.1% (inactive)	–
CCOC(=O)c1cnc2ccc(OCC)cc2c1N(C)Cc1ccccc1	69.7% (inactive)	–
Cc1cc(C)c2sc(N(CCCN(C)C)C(=O)c3ccc(S(=O)(=O)N4CCc5ccccc5C4)cc3)nc2c1	-21.4% (inactive)	–
CCOC(=O)[C@]12Cc3cc(Cl)ccc3[C@H]1N(C1CCCCC1)C(=O)c1cc(OC)ccc12	–	102% (inactive)
CCOCCCNC(=S)N1CCCN(c2nc3c(C)c(C)ccc3cc2C#N)CC1	83.8% (inactive)	–
COc1ccc(Cl)c(-c2cc(C(=O)NCc3ccc(C(F)(F)F)cc3)[nH]n2)c1	103% (inactive)	–
O=c1c2ccc(F)cc2sn1-c1ccccc1	75.9% (inactive)	–
CCc1ccc2nc(N(CCCN(C)C)C(=O)c3ccc(S(=O)(=O)N4CCc5ccccc5C4)cc3)sc2c1	81.8% (inactive)	–
Cc1ccc2nc(-c3ccc(NC(=S)NC4CC(C)(C)NC(C)(C)C4)cc3)sc2c1	5.48% (inactive)	–
O=C(Nc1ccc2nc(-c3cccs3)c(-c3cccs3)nc2c1)N1CCOCC1	-2.59% (inactive)	–
CCOc1ccc(-c2cc(C(=O)NCCCn3ccnc3)c3cc(Br)ccc3n2)cc1	25.6% (inactive)	–
CCC(=C(c1ccc(OC)cc1)c1ccc(OC)cc1)c1cn(CC(O)CN2CCN(C)CC2)c2ccccc12 (centres undefined)	87.4% (inactive)	–
O=C(Nc1nc2ccccc2n1CCN1CCOCC1)c1ccc(COc2ccccc2Br)o1	102% (inactive)	–
O=C(Nc1ccc2nc(-c3cccs3)c(-c3cccs3)nc2c1)NC1CC1	68.3% (inactive)	–
Cn1sc(=O)c2cc(S(=O)(=O)NC3CC3)ccc21	103% (inactive)	–
OCCN1CCN(CC(O)COc2ccc(C34CC5CC(CC(C5)C3)C4)cc2)CC1 (centres undefined)	85.8% (inactive)	–
COc1ccc2sc(N(CCCN(C)C)C(=O)c3ccc(S(=O)(=O)N4CCc5ccccc5C4)cc3)nc2c1	50% (inactive)	–
CN(C)CCCN(C(=O)CCSc1ccccc1)c1nc2cc3c(cc2s1)OCO3	90.1% (inactive)	–
